# From patent publication US12048751B2, “Compositions and methods for assessing gut function” (MediBeacon Inc., priority 2013, dated 2024)
# Experiments:
# [1] = Light absorption and emission maxima of the fluorescent challenge molecule; assay type: physicochemical
# Source text: (§1) Example 1 may be categorized as fluorescent challenge molecule is not substantially absorbed by a healthy gut.
# Example 2 may be categorized as fluorescent challenge molecule is not substantially absorbed by a healthy gut as the molecular weight is relatively high (344 g/mol).
# (§2) Example 3 may be categorized as fluorescent challenge molecule that is substantially absorbed by a healthy gut as the molecular weight is relatively low (198 g/mol).
# [2] = Clearance from the body followed by fluorescence signal, with and without ligated kidneys; assay type: in vivo; conditions: for clearance pathway from the body: fluorescence signal over time
# Source text: as §2
# [3] = Plasma concentration vs. time after single intravenous and oral dose (IV and oral clearance); assay type: in vivo, Sprague-Dawley rats; conditions: rats having "normal" gut function; single dose given intravenously and orally (FIG. 3)
# Source text: as §1
light absorption maximum [1] [nm],light emission maximum [1] [nm],clearance pathway from the body [2],"fluorescence signal when the kidneys are ligated ([2]; kidneys ligated, no excretion pathway)",oral bioavailability [3],Structure (SMILES),clearance pathway from the body ([2]; listed as Example Compound 3)
486,600,–,–,–,"NC(=O)c1nc(NCC(O)CO)c(C(N)=O)nc1NCC(O)CO (stereo not shown) [Example 2, 3,6-N,N′-bis(2,3-dihydroxypropyl)-2,5-pyrazinedicarboxamide]",–
396,536,clears from the body by the renal system,stays elevated,–,"Nc1nc(C(=O)O)c(N)nc1C(=O)O [Example 3, 3,6-diaminopyrazine-2,5-dicarboxylic Acid]",clears from the body via the renal system
445,560,–,–,very little,"Nc1nc(C(=O)N[C@H](CO)C(=O)O)c(N)nc1C(=O)N[C@H](CO)C(=O)O [Example 1, 3,6-diamino-2,5-bis{N-[(1R)-1-carboxy-2-hydroxyethyl]carbamoyl}pyrazine]",–
